Columns and labels:
rat sciatic nerve = assay: Bilateral sciatic nerve transection (neurotmesis) and neurorrhaphic repair, GAP-43 axon scoring; type: in vivo; details: for axon regeneration / ingress into the distal segment vs vehicle-treated controls: 4 days after transection and repair
Experimental: Surgical procedures for nerve transection and nerve crush experiments. All surgical procedures were performed according to Institutional Animal Care and Use Committee (IACUC) approved protocols. Young adult SPRAGUE DAWLEY rats (HARLAN Indianapolis, Ind.) were deeply anesthetized with xylazine (15 mg/kg, i.m.) followed by ketamine-HCl (110 mg/kg, i.p.). Six animals received bilateral nerve crush injuries. Sciatic nerves were exposed and then crushed with firm pressure for thirty seconds with a DUMONT #5 forceps at a site 4 mm distal to the tendon of the internal obdurator. The crush site was marked with an epineurial suture. In a separate set of experiments, eight rats received bilateral sciatic nerve transection injuries using serrated scissors. The proximal and distal stumps were […] by epineurial neurorrhaphy using 9-0 ETHILON sutures. Fibrin glue (fibrinogen and thrombin) was then applied to stabilize the union. In both injury models, the right sciatic nerves were injected 2-mm distal to the injury with chondroitinase ABC (1 U in 2 μl) (high-purity, protease-free; SIGMA CHEMICAL CO., St. Louis, […].). Left sciatic nerves (with the same injury as the right side) were injected with vehicle alone (0.1% bovine serum albumin in PBS). Muscle incisions were sutured and the skin closed with metal clips. After recovery from the anesthetic, animals were returned to standard housing. Two days (for crush injury) and four days (for transection injury) after surgery, nerves were removed under anesthesia and fixed as described below. One of the eight animals receiving nerve transection and repair was excluded because loss of continuity in one nerve occurred during convalescence.
The hypothesis that chondroitinase treatment improves axonal growth through the site of nerve coaptation was tested. Bilateral neurotmesis was achieved by a scissor cut of the sciatic nerves which were then repaired by epineurial suture and fibrin glue. One nerve was injected with chondroitinase ABC and the contralateral nerve received vehicle alone. Because of the latency of regeneration after nerve transection, axonal growth across the coaptation was examined four days after injury. In control nerves, the ingress of axons occurred mainly in patches and was limited to discrete subsections of the distal nerve; otherwise only a few axons were found scattered throughout the remaining nerve cross-section, as shown in FIG. 14A. The number of axons extending farther into the distal (after 4 days) rapidly diminished and approached zero within 3 mm from the coaptation. In contrast, axon ingress into chondroitinase-treated nerves was more robust and widespread throughout the entire nerve cross-section. In 7/7 animals, the number of axons that entered the distal nerve was greater in the chondroitinase-treated nerve than in the control nerve. […] It was clear that axon growth in all portions of the distal nerve was strictly linear and aligned with the longitudinal axis of the nerve.

[1] = system: embryonic chick DRG neurons; assay: Cryoculture bioassay on sections of acellular rat nerve segments; type: cell-based
Experimental: Cryoculture bioassay. Cryoculture is a neurite outgrowth assay in which neurons are cultured directly on fresh/frozen nerve sections and was performed as described previously (Ferguson T A et al. [2000] Mol Cell Neurosci, 16:157-167). Briefly, chondroitinase- and vehicle-treated nerve segments were sectioned at 20 μm, mounted on sterile, aminopropyltriethoxysilane (APTS)-coated coverslips and stored at −20° C. until used. Where indicated, sections were treated with chondroitinase ABC (0.1 unit/ml) or vehicle (50 mM Tris-HCl, pH 8.0), containing 50 mM NaCl) for 2 h at 37° C. Purified dorsal root ganglionic (DRG) neurons from day 8 chick embryos were seeded directly on the nerve sections in a defined N2 medium (Bottenstein J E et al. [1980] Exp Cell Res 125:183-190) containing 10 ng/ml nerve growth factor. […] Neurite lengths were measured directly using IMAGE-PRO PLUS software (MEDIA CYBERNETICS, Silver Springs, Md.). At least 250 neurons with neurites greater than one cell body (˜15 μm) were scored for each condition in each experiment.
Inactivation of inhibitory CSPG in chondroitinase-treated acellular nerve was determined by cryoculture bioassay. Embryonic chick DRG neurons were seeded onto sections of prepared nerve segments and the neurite-promoting activity was assessed by scoring neurite growth. […]

For chondroitinase ABC, the “animals in which number of axons entering distal nerve was greater than in control nerve” value (rat sciatic nerve; 4 days after injury) was 7/7, the “increase in axon score immediately distal to coaptation in 3/7 animals” value (rat sciatic nerve; 4 days after injury, 3/7 animals) was “greater than 3.5 fold” and the “score of axons immediately distal to the coaptation vs control” value (rat sciatic nerve; 4 days after injury, average) was “two-fold greater”. The “axon regeneration / ingress into the distal segment vs vehicle-treated controls” value (rat sciatic nerve) was “significantly greater”, the “axon regeneration / ingress into the distal segment vs vehicle-treated controls” value (rat sciatic nerve; listed as chondroitinase) was “increased several-fold” and the “effect of post-treatment on neurite-promoting activity” value ([1]; sections from en bloc chondroitinase-treated nerve grafts) was “only a slight additive effect”. For the same substance, the “increase in neurite-promoting activity by post-treatment of sections” value ([1]; sections of acellular nerve treated en bloc with vehicle only, post-treated after sectioning) was 86%.

From patent publication US8986733B2, “Materials and methods for nerve repair” (University of Florida Research Foundation, Inc., priority 2001, dated 2015)
